Drawing on ChEMBL document CHEMBL5230123, “A comprehensive review of monoamine oxidase inhibitors as Anti-Alzheimer's disease agents: A review” (Eur J Med Chem, 2020), this text covers IC50, Ki and bioavailability for 13 compounds.

pIC50, pKi: −log10 of the molar value.

Data set [1] addresses T1, Acetylcholinesterase (Homo sapiens, UniProt P22303). The data set can be described thus: Inhibition of recombinant human AChE using acetylcholine as substrate preincubated for 15 mins followed by substrate addition and measured after 30 mins by Amplex Red reagent based fluorescence assay.
Data set [2] addresses T2, Amine oxidase [flavin-containing] A (Homo sapiens, UniProt P21397).
T2 sequence (P21397 whole entry): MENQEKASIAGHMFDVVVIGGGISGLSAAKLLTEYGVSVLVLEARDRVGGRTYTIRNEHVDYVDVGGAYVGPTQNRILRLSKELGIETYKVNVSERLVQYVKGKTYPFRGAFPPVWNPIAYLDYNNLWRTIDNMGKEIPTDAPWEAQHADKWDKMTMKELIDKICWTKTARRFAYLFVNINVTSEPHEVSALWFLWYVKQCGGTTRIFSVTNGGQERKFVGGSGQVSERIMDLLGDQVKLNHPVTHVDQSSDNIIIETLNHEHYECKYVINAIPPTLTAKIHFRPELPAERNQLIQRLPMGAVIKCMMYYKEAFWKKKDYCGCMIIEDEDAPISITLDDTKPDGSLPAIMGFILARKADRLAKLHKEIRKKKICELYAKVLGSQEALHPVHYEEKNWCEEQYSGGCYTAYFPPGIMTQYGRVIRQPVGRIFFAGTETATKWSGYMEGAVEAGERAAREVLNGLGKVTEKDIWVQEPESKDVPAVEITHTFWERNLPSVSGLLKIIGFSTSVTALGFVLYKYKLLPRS
Description: Inhibition of human MAO-A using p-tyramine as substrate preincubated for 15 mins followed by substrate addition and measured after 30 mins by Ample red assay.

Data set [3] has as its target Cholinesterase (Homo sapiens, UniProt P06276). The data set can be described thus: Inhibition of human BuChE using butyrylthiocholine iodide as substrate preincubated for 30 mins followed by substrate addition and measured after 15 mins by Ellman's method. (Ellman's reagent forms a yellow product with free thiols.)
Data set [4] concerns the target Acetylcholinesterase (Electrophorus electricus, UniProt O42275). Description: Inhibition of electric eel AChE using acetylthiocholine iodide as substrate incubated for 15 mins by Ellman's method.
Data set [5] concerns the target T2, Amine oxidase [flavin-containing] A. The data set can be described thus: Inhibition of MAO-A (unknown origin) using kynuramine as substrate preincubated for 10 mins followed by substrate addition and measured after 20 mins by fluorescence microplate reader assay.
Data set [6] concerns the target T3, Amine oxidase [flavin-containing] B (Homo sapiens, UniProt P27338).
T3 sequence (P27338 whole entry): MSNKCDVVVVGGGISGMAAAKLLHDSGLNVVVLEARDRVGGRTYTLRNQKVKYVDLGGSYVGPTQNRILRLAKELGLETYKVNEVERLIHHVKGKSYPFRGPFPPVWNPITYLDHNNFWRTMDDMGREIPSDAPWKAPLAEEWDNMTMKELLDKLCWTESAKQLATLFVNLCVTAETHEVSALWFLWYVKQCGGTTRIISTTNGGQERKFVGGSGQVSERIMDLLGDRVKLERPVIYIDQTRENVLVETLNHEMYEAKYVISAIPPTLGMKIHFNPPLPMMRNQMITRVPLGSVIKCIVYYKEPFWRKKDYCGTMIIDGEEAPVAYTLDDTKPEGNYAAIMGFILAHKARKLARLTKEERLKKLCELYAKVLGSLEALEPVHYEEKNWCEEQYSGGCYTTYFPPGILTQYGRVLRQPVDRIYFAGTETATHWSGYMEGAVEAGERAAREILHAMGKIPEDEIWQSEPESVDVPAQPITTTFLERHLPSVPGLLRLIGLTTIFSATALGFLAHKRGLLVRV
The data set can be described thus: Inhibition of MAO-B (unknown origin) using kynuramine as substrate preincubated for 10 mins followed by substrate addition and measured after 20 mins by fluorescence microplate reader assay.

Data set [7] addresses T3, Amine oxidase [flavin-containing] B. The data set can be described thus: Inhibition of recombinant human MAO-B using kynuramine as substrate incubated for 20 mins by fluorescence spectrophotometric assay.
Data set [8] addresses T2, Amine oxidase [flavin-containing] A. The data set can be described thus: Inhibition of recombinant human MAO-A using kynuramine as substrate incubated for 20 mins by fluorescence spectrophotometric assay.
For data set [9], the target named is T3, Amine oxidase [flavin-containing] B. Description: Competitive inhibition of recombinant human MAO-B using kynuramine as substrate incubated for 20 mins by Lineweaver-Burk plot analysis.
The target of data set [10] is T2, Amine oxidase [flavin-containing] A. The data set can be described thus: Inhibition of human MAO-A assessed as inhibition constant using kynuramine as substrate.
Data set [11] deals with T3, Amine oxidase [flavin-containing] B. The data set can be described thus: Inhibition of human MAO-B using benzylamine as substrate.
For data set [12] the target is unchanged. Description: Inhibition of human MAO-B using tyramine hydrochloride as substrate preincubated for 30 mins followed by substrate addition and measured after 30 mins by fluorescence assay.
Data set [13] has the same target. Description: Inhibition of human MAO-B assessed as inhibition constant using benzylamine as substrate.
The target of data set [14] is T4, Acetylcholinesterase (Mus musculus, UniProt P21836).
T4 sequence (P21836 whole entry): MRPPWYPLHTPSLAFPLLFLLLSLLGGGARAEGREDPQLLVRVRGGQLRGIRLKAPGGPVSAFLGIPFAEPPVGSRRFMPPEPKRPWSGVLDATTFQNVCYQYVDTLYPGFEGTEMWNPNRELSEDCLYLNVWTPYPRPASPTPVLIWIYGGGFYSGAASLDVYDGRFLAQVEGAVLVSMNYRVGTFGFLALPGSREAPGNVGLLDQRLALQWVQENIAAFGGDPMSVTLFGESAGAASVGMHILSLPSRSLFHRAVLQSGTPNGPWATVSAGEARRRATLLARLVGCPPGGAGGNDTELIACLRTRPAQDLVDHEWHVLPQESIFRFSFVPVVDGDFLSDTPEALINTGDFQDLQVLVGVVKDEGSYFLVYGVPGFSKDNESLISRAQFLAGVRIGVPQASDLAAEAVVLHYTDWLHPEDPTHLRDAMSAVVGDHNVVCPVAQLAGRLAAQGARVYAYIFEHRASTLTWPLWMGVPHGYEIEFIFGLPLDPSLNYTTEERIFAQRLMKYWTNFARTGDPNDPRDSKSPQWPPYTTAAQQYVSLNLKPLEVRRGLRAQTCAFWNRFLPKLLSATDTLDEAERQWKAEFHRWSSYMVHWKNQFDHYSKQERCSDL
The data set can be described thus: Inhibition of mouse AChE using acetylthiocholine iodide as substrate incubated for 20 mins by DTNB reagent based Ellman's method.

The nature of data set [15]: Oral bioavailability in ICR mouse at 10 mg/kg and measured after 24 hrs by HPLC analysis. The format is ADME, organism-based. The conditions noted are these: in vivo.
The target in data set [16] is T3, Amine oxidase [flavin-containing] B. The data set can be described thus: Inhibition of human MAO-B using benzylamine as substrate preincubated for 15 mins followed by substrate addition and measured after 15 mins by fluorescence assay.
Data set [17] shares this target. Description: Inhibition of recombinant human MAO-B using p-tyramine as substrate preincubated for 15 mins followed by substrate addition and measured after 20 mins by fluorescence assay.
For data set [18], the target named is T1, Acetylcholinesterase. Description: Inhibition of human AChE using acetylcholine as substrate incubated for 5 mins followed by substrate addition by Ellman's method.
Data set [19] has as its target T3, Amine oxidase [flavin-containing] B. Description: Inhibition of recombinant human MAO-B using tyramine hydrochloride as substrate preincubated for 30 mins followed by substrate addition and measured after 30 mins by fluorescence assay.
Data set [20] concerns the target T5, Amine oxidase [flavin-containing] B (Rattus norvegicus, UniProt P19643).
T5 sequence (P19643 whole entry): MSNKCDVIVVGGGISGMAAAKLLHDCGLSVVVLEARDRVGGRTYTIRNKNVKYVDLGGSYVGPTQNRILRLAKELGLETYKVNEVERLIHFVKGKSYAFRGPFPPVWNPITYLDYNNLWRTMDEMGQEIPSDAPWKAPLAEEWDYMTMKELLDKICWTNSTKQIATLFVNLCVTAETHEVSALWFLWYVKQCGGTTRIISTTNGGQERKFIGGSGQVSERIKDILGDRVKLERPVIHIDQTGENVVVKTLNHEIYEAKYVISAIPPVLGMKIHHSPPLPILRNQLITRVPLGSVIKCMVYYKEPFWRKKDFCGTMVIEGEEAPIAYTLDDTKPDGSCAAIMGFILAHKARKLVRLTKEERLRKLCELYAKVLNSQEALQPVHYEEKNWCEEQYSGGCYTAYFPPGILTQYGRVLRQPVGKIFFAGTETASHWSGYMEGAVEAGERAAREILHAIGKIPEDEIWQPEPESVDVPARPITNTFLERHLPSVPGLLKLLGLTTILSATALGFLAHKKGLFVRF
The data set can be described thus: Inhibition of rat brain mitochondria MAO-B using benzylamine as substrate incubated for 30 mins by microplate reader assay.

The target of data set [21] is T3, Amine oxidase [flavin-containing] B. Description: Inhibition of human MAO-B.
In data set [22] the target is T2, Amine oxidase [flavin-containing] A. Description: Mixed type inhibition of human MAO-A assessed as inhibition constant by Lineweaver-Burk plot analysis.
Data set [23] deals with T3, Amine oxidase [flavin-containing] B. Description: Inhibition of recombinant human MAO-B expressed in baculovirus-infected BTI insect cells using p-tyramine as substrate incubated for 45 mins by fluorescence assay.

T1 sequence (P22303 whole entry): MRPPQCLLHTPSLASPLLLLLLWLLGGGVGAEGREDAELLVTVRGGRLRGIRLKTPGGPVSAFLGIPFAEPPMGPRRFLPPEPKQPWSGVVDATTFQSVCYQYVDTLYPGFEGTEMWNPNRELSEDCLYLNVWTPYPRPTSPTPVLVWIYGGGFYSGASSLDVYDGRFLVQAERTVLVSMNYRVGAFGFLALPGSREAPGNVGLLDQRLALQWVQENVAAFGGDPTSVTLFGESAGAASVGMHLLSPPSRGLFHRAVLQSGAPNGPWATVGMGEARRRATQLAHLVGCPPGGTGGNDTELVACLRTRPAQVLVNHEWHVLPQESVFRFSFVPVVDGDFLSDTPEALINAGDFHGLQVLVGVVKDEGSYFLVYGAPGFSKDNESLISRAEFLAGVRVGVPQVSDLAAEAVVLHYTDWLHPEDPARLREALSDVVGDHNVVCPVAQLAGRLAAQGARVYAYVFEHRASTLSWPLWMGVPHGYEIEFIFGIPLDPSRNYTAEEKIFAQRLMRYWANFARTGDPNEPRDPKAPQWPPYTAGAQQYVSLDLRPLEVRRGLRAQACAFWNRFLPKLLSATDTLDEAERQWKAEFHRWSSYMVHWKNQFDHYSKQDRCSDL
Sequence of Acetylcholinesterase (Electrophorus electricus, UniProt O42275) (O42275 whole entry): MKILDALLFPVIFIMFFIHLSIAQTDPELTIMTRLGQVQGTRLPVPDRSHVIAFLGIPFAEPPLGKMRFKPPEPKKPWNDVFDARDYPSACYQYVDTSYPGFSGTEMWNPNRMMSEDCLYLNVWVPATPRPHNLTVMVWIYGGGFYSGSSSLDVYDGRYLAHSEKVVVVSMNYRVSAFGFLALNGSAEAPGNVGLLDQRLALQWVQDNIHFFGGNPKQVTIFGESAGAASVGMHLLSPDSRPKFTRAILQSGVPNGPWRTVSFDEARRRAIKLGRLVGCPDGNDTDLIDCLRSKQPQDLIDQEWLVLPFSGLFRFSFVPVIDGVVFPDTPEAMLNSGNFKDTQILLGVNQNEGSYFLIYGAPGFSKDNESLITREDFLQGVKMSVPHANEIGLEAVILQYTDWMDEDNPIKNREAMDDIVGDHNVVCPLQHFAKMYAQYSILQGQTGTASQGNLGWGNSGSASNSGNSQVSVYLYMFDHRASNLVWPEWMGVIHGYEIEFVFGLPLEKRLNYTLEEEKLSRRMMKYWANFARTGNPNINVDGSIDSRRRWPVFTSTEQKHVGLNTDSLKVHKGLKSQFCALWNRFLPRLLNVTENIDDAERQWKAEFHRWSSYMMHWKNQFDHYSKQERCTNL
Sequence of Cholinesterase (P06276 whole entry): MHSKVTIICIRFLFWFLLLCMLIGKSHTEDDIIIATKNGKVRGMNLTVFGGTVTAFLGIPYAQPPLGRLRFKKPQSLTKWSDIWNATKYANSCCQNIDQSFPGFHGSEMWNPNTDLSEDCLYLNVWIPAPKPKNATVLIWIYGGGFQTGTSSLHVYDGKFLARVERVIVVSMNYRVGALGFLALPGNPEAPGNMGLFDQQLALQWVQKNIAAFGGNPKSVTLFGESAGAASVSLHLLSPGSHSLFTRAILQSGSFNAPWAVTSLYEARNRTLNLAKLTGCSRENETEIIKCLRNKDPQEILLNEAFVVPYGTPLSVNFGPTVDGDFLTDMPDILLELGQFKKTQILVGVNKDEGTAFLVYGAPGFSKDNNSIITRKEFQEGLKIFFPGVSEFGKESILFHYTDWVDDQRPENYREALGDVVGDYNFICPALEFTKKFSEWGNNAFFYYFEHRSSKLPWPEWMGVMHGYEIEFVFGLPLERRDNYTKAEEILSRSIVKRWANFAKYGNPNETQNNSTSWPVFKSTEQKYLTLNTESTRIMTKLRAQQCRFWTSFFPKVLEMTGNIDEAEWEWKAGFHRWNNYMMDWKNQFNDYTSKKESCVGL

For orientation: pIC50 means −log10 of the IC50, conventionally taken in molar units. `C#CCOc1ccc(-c2cc(-c3ccc(OCCN4CCOCC4)cc3)nc(N)n2)cc1`: the negative-log IC50 (pIC50) was 7.52 in data set [1], 7.74 in data set [2] and 6.18 in data set [3].

In data set [4], `C#CCN1C(=O)/C(=N/NC(=O)c2ccc3c(c2)OCO3)c2ccccc21` showed a pIC50 of 7.28.

For the compound `CCOc1ccc([N+](=O)[O-])c(N/N=C/c2ccc(O)cc2)n1`, the pIC50 in data set [5] is 5.20; in [6] it was 5.03.

Usually pKi stands for −log10 of the Ki, conventionally taken in molar units. `O=C1Oc2ccccc2C(=O)/C1=C/NCc1ccccc1`: the pIC50 in data set [7] was 6.20; in [8], 4.11. The pKi in [9] was 4.03.

For the compound `COc1cc(/C=C/C(=O)CC(=O)/C=C/c2ccc(O)cc2)ccc1O`, the pKi in [10] is 6.04. Further, the pIC50 in data set [11] was 5.61.

For `O=C(CSC(=S)N1CCN(c2ccc([N+](=O)[O-])cc2)CC1)N(Cc1ccc([N+](=O)[O-])cc1)c1ccc(F)cc1`, the pIC50 in data set [12] was 7.01.

With `O=C(/C=C/c1ccc(O)cc1)CC(=O)/C=C/c1ccc(O)cc1` [BISDEMETHOXYCURCUMIN], in data set [13], the pKi is 6.10. Further, the negative logarithm of the IC50 (pIC50) in data set [11] is 5.59.

As usually defined, the bioavailability is dose-corrected exposure relative to a reference, in per cent. Low values mean little systemic uptake, high ones much systemic uptake. In the case of `C#CCNCc1ccc2c(c1)ncn2-c1cc(NC(=S)NCC)ncn1`, the pIC50 in data set [14] is 7.49; in data set [16] it was 5.67. For the same compound, the bioavailability in data set [15] is 45.5%.

Regarding `Cc1c(C)c2c(c(C)c1O)CCC(C)(C(=O)NCCC1CCN(Cc3ccccc3F)CC1)O2` (centres undefined), the pIC50 was 5.37 in data set [17] and 6.27 in [18].

As for `CC1CCCCN1c1ccc(/C=N/Nc2ccccc2)cc1` (centres undefined), the pIC50 in data set [19] was 6.47.

`O=C1Nc2ccc(Cl)cc2/C1=N\NC(=O)c1ccc2c(c1)OCO2`: in [20], the pIC50 was 7.47.

For the compound `COc1cc(O)c2c(=O)oc3cc(O)cc(C)c3c2c1`, in data set [21], the pIC50 was below 4.10. Besides, the pKi in [22] is 6.47.

For `Cn1ccc2cc(C(=S)Nc3ccc(F)cc3)ccc21`, the pIC50 in [23] was 7.55.
